O=C1OCCC1n1nc(-c2c(-c3ccccc3)nn3ccccc23)ccc1=O (centres unmarked) [Example 25, 3-[2-(2-Oxo-2,3,4,5-tetrahydrofuran-3-yl)-3-oxo-2,3-dihydropyridazin-6-yl]-2-phenylpyrazolo[1,5-a]pyridine]
melting point: 179 to 180 °C

O=c1ccc(-c2c(-c3ccccc3)nn3ccccc23)nn1C1CCCCC1 [Example 1, 3-(2-cyclohexyl-3-oxo-2,3-dihydropyridazin-6-yl)-2-phenylpyrazolo[1,5-a]pyridine]
melting point: 115 to 117 °C

CC(C)(C)OC(=O)/C=C1/CCCCC1n1nc(-c2c(-c3ccccc3)nn3ccccc23)ccc1=O (centres unmarked) [Example 98, (Z)-3-[2-{2-(tert-butoxycarbonyl-methylene)cyclohexyl}-3-oxo-2,3-dihydropyridazin-6-yl]-2-phenylpyrazolo[1,5-a]pyridine]
melting point: 171 to 172 °C

O=c1ccc(-c2c(-c3ccccc3)nn3ccccc23)nn1[C@@H]1CCCC[C@H]1O (relative stereo) [Example 5, trans-3-[2-(2-hydroxycyclohexyl)-3-oxo-2,3-dihydropyridazin-6-yl]-2-phenylpyrazolo[1,5-a]-pyridine]
melting point: 229 to 230 °C

COC(=O)/C=C1\CCCCC1n1nc(-c2c(-c3ccccc3)nn3ccccc23)ccc1=O (centres unmarked) [Example 31, (E)-3-[2-(2-methoxycarbonylmethylenecyclohexyl)-3-oxo-2,3-dihydropyridazin-6-yl]-2-phenylpyrazolo[1,5-a]pyridine]
melting point: 156 to 157 °C

O=C(O)CN1CCC(n2nc(-c3c(-c4ccccc4)nn4ccccc34)ccc2=O)C1=O (centres unmarked) [Example 42, 3-[2-(1-Carboxymethyl-2-oxo-pyrrolidin-3-yl)-3-oxo-2,3-dihydropyridazin-6-yl]-2-phenylpyrazolo[1,5-a]pyridine]
melting point: 250 to 251 °C

O=C(O)C[C@@H]1CCCC[C@H]1n1nc(-c2c(-c3ccccc3)nn3ccccc23)ccc1=O (relative stereo) [Example 39, trans-3-[2-(2-Carboxymethylcyclohexyl)-3-oxo-2,3-dihydropyridazin-6-yl]-2-phenylpyrazolo[1,5-a]pyridine]
melting point: 238 to 240 °C

O=C1CCCCCC1n1nc(-c2c(-c3ccccc3)nn3ccccc23)ccc1=O (centres unmarked) [Example 11, 3-[2-(2-Oxocycloheptyl)-3-oxo-2,3-dihydropyridazin-6-yl]-2-phenylpyrazolo[1,5-a]pyridine]
melting point: 112 to 114 °C

O=C(O)CC1=C(n2nc(-c3c(-c4ccccc4)nn4ccccc34)ccc2=O)CCCCC1 (hydrate or solvate) [Example 19, 3-[2-(2-carboxymethyl-1-cycloheptenyl)-3-oxo-2,3-dihydropyridazin-6-yl]-2-phenylpyrazolo[1,5-a]-pyridine]
melting point: 171 to 172 °C

O=c1ccc(-c2c(-c3ccccc3)nn3ccccc23)nn1[C@H]1CC[C@@H](C(=O)O)CC1 [Example 47(1), cis-3-[2-(4-Carboxycyclohexyl)-3-oxo-2,3-dihydropyridazin-6-yl]-2-phenylpyrazolo[1,5-a]pyridine]
melting point: 296 to 298 °C

O=C1NCCC1n1nc(-c2c(-c3ccccc3)nn3ccccc23)ccc1=O (centres unmarked) [Example 23, 3-[2-(2-Oxopyrrolidin-3-yl)-3-oxo-2,3-dihydropyridazin-6-yl]-2-phenylpyrazolo[1,5-a]pyridine]
melting point: 133 to 134 °C (dec.)

O=C(O)CCCNC(=O)CC1=C(n2nc(-c3c(-c4ccccc4)nn4ccccc34)ccc2=O)CCCC1 [Example 46, 3-[2-(2-(N-(3-Carboxypropyl)carbamoyl)methyl-1-cyclohexenyl)-3-oxo-2,3-dihydropyridazin-6-yl]-2-phenylpyrazolo[1,5-a]pyridine]
melting point: 92.5 to 93 °C

COC(=O)COc1cccc2c1CCC(n1nc(-c3c(-c4ccccc4)nn4ccccc34)ccc1=O)C2=O (centres unmarked) [Example 118, 3-[2-(1-Methoxycarbonylmethoxy-5-oxo-5,6,7,8-tetrahydro-6-naphthyl)-3-oxo-2,3-dihydropyridazin-6-yl]-2-phenylpyrazolo[1,5-a]pyridine]
melting point: 175 to 176 °C

COc1ccc(-n2nc(-c3c(-c4ccccc4)nn4ccccc34)ccc2=O)cc1 [Example 100, 3-[2-(4-Methoxyphenyl)-3-oxo-2,3-dihydropyridazin-6-yl]-2-phenylpyrazolo[1,5-a]pyridine]
melting point: 158 °C

CCCn1c(=O)cc(-n2nc(-c3c(-c4ccccc4)nn4ccccc34)ccc2=O)n(CC(=O)OC)c1=O [Example 28, 3-[2-(2,4-Dioxo-1-methoxycarbonylmethyl-3-propyl-1,2,3,4-tetrahydropyrimidin-6-yl)-3-oxo-2,3-dihydropyridazin-6-yl]-2-phenylpyrazolo[1,5-a]pyridine]
melting point: 143 to 145 °C

N#C/C=C1\CCCCC1n1nc(-c2c(-c3ccccc3)nn3ccccc23)ccc1=O (stereo not drawn) [Example 96 (E)-isomer, (E)-3-[2-{2-Cyanomethylenecyclohexyl}-3-oxo-2,3-dihydropyridazin-6-yl]-2-phenylpyrazolo[1,5-a]pyridine]
melting point: 174 to 175 °C

O=C(O)[C@@H]1CC[C@H](n2nc(-c3c(-c4ccccc4)nn4ccccc34)ccc2=O)C(=O)C1 (relative stereo) [Example 13, cis-3-[2-(4-carboxy-2-oxocyclohexyl)-3-oxo-2,3-dihydropyridazin-6-yl]-2-phenylpyrazolo[1,5-a]pyridine]
melting point: 186 to 188 °C

CC(C)(C)OC(=O)CC1=CCCCC1n1nc(-c2c(-c3ccccc3)nn3ccccc23)ccc1=O (centres unmarked) [Example 95(2), 3-[2-{2-(tert-Butoxycarbonylmethyl)-2-cyclohexen-1-yl}-3-oxo-2,3-dihydropyridazin-6-yl]-2-phenylpyrazolo-[1,5-a]pyridine]
melting point: 145.5 to 147 °C

N#CC1CCCCC1n1nc(-c2c(-c3ccccc3)nn3ccccc23)ccc1=O (centres unmarked) [Example 108, 3-[2-(2-cyanocyclohexyl)-3-oxo-2,3-dihydropyridazin-6-yl]-2-phenylpyrazolo[1,5-a]pyridine]
melting point: 214 °C

COC(=O)[C@@H]1CC[C@H](n2nc(-c3c(-c4ccccc4)nn4ccccc34)ccc2=O)C(=O)C1 (relative stereo) [Example 10, cis-3-[2-(4-Methoxycarbonyl-2-oxocyclohexyl)-3-oxo-2,3-dihydropyridazin-6-yl]-2-phenylpyrazolo[1,5-a]pyridine]
melting point: 164 to 165 °C

CCOC(=O)C[C@H]1CCCC[C@H]1n1nc(-c2c(-c3ccccc3)nn3ccccc23)ccc1=O (relative stereo) [Example 33(2), cis-3-[2-(2-Ethoxycarbonylmethylcyclohexyl)-3-oxo-2,3-dihydropyridazin-6-yl]-2-phenylpyrazolo[1,5-a]pyridine]
melting point: 151 to 152 °C

NN=C1CCCCC1n1nc(-c2c(-c3ccccc3)nn3ccccc23)ccc1=O (centres unmarked) [Example 88, 3-[2-(2-Hydrazonocyclohexyl)-3-oxo-2,3-dihydropyridazin-6-yl]-2-phenylpyrazolo[1,5-a]pyridine]
melting point: 161 to 162 °C

O=c1ccc(-c2c(-c3ccccc3)nn3ccccc23)nn1C1CCC2(CC1)OCCO2 [Example 21, 3-[2-(4,4-Ethylenedioxycyclohexyl)-3-oxo-2,3-dihydropyridazin-6-yl]-2-phenylpyrazolo[1,5-a]pyridine]
melting point: 189 to 190 °C

From patent US6355640B1, “Pyrazolopyridine adenosine antagonists” (Fujisawa Pharmaceutical Co., Ltd., priority 1993, dated 2002)
